Measured values as given in patent US20200031778A1, “NOVEL 5-SUBSTITUTED IMIDAZOLYLMETHYL DERIVATIVES” (Bayer CropScience Aktiengesellschaft, priority 2016, published 2020).

Assays:
Sphaerotheca fuliginea = assay: Example IX-C: in vivo preventive test on Sphaerotheca fuliginea (powdery mildew on cucurbits); details: Podosphaera fuliginea, 360 h; compounds of formula IX; 500 ppm of active ingredient; gherkin plants, preventive spray; evaluated 15 days after inoculation; read-out: efficacy
Description: Example IX-C: In Vivo Preventive Test on Sphaerotheca Fuliginea (Powdery Mildew on Cucurbits)
(§1) The active ingredients are made soluble and homogenized in a mixture of Dimethyl sulfoxide/Acetone/Tween® 80 and then diluted in water to the desired concentration.
The young plants of gherkin are treated by spraying the active ingredient prepared as described above. Control plants are treated only with an aqueous solution of Acetone/Dimethyl sulfoxide/Tween® 80.
After 24 hours, the plants are contaminated by spraying the leaves with an aqueous suspension of Sphaerotheca fuliginea spores. The contaminated gherkin plants are incubated for 72 hours at 18° C. and at 100% relative humidity and then for 12 days at 20° C. and at 70-80% relative humidity.
The test is evaluated 15 days after the inoculation. 0% means an efficacy which corresponds to that of the control plants while an efficacy of 100% means that no disease is observed.

Uromyces appendiculatus = assay: Example IX-D: in vivo preventive test on Uromyces appendiculatus (bean rust); details: 264 h, compounds of formula IX, 500 ppm of active ingredient, bean plants, preventive spray, evaluated 11 days after inoculation, read-out: efficacy
Description: Example IX-D: In Vivo Preventive Test on Uromyces Appendiculatus (Bean Rust)
as §1
The young plants of bean are treated by spraying the active ingredient prepared as described above. Control plants are treated only with an aqueous solution of Acetone/Dimethyl sulfoxide/Tween® 80.
After 24 hours, the plants are contaminated by spraying the leaves with an aqueous suspension of Uromyces appendiculatus spores. The contaminated bean plants are incubated for 24 hours at 20° C. and at 100% relative humidity and then for 10 days at 20° C. and at 70-80% relative humidity.
(§2) The test is evaluated 11 days after the inoculation. 0% means an efficacy which corresponds to that of the control plants while an efficacy of 100% means that no disease is observed.
control plants while an efficacy of 100% means that no disease was observed.

Septoria tritici = assay: Example IX-B: in vivo preventive test on Septoria tritici (leaf spot on wheat); details: Zymoseptoria tritici, 576 h; compounds of formula IX; 500 ppm of active ingredient; wheat plants, preventive spray; evaluated 24 days after inoculation; read-out: efficacy
Description: Example IX-B: In Vivo Preventive Test on Septoria Tritici (Leaf Spot on Wheat)
as §1
(§3) The young plants of wheat are treated by spraying the active ingredient prepared as described above. Control plants are treated only with an aqueous solution of Acetone/Dimethyl sulfoxide/Tween® 80.
After 24 hours, the plants are contaminated by spraying the leaves with an aqueous suspension of Septoria tritici spores. The contaminated wheat plants are incubated for 72 hours at 18° C. and at 100% relative humidity and then for 21 days at 20° C. and at 90% relative humidity.
The test is evaluated 24 days after the inoculation. 0% means an efficacy which corresponds to that of the control plants while an efficacy of 100% means that no disease is observed.

[1] = Log P by HPLC on reversed phase columns (EEC directive 79/831 Annex V.A8; methods [a], [b], [c]); assay type: physicochemical; details: reversed phase HPLC column; method [a]: LC-UV, acidic range, 0.1% formic acid in water and acetonitrile as eluent (linear gradient from 10% to 95% acetonitrile)
How it was run: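 Reversed-phase HPLC with LC-UV detection, 10→95% acetonitrile linear gradient; aqueous eluent 0.1% formic acid [a], 0.001 M ammonium acetate, neutral [b], or 0.1% phosphoric acid [c]. Calibrated against C3–C16 alkan-2-ones of known Log P by retention-time linear interpolation; multiple values within a method separated by "+".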

Puccinia recondita = assay: Example IX-A: in vivo preventive test on Puccinia recondita (brown rust on wheat); details: 264 h, compounds of formula IX, 500 ppm of active ingredient, wheat plants, preventive spray, evaluated 11 days after inoculation, read-out: efficacy
Description: Example IX-A: In Vivo Preventive Test on Puccinia Recondita (Brown Rust on Wheat)
as §1, §3
After 24 hours, the plants are contaminated by spraying the leaves with an aqueous suspension of Puccinia recondita spores. The contaminated wheat plants are incubated for 24 hours at 20° C. and at 100% relative humidity and then for 10 days at 20° C. and at 70-80% relative humidity.
as §2

| SMILES | pest or weed control at 500 ppm (Sphaerotheca fuliginea) | pest or weed control at 500 ppm (Uromyces appendiculatus) | pest or weed control at 500 ppm (Septoria tritici) | chromatographic logP [1] | pest or weed control at 500 ppm (Puccinia recondita) |
| --- | --- | --- | --- | --- | --- |
| N#Cc1cncn1CC(=O)c1ccc(Oc2ccc(Br)cn2)cc1Cl [IX-77] | 90 to 100% | 90 to 100% | 90 to 100% | 2.94 | 90 to 100% |
| O=C(Cn1cncc1Cl)c1ccc(Oc2ccc(I)cc2)cc1Cl [IX-13] | 90 to 100% | 90 to 100% | 90 to 100% | 3.41 | 90 to 100% |
| N#Cc1cncn1CC(=O)c1cnc(Oc2ccc(Cl)cc2)cc1Cl [IX-91] | 90 to 100% | 90 to 100% | 90 to 100% | 3 | 90 to 100% |
| O=C(Cn1cncc1F)c1cnc(Oc2ccc(Cl)cc2F)cc1C(F)(F)F [IX-95] | 90 to 100% | 90 to 100% | 70 to 79% | 2.84 | 70 to 79% |
| O=C(Cn1cncc1Cl)c1ccc(Oc2ccc(Br)nc2)cc1Cl [IX-78] | 90 to 100% | 90 to 100% | 90 to 100% | 2.32 | 80 to 89% |
| O=C(Cn1cncc1C(F)(F)F)c1ccc(Oc2ccc(Cl)cc2)cc1Cl [IX-57] | 90 to 100% | 80 to 89% | 90 to 100% | 4.03 | 90 to 100% |
| O=C(Cn1cncc1Br)c1ccc(Oc2ccc(Br)cc2)cc1C(F)(F)F [IX-40] |  | 90 to 100% | 90 to 100% | 3.46 | 80 to 89% |
| O=C(Cn1cncc1F)c1cnc(Oc2ccc(C(F)(F)F)cc2)cc1Cl [IX-110] | 90 to 100% | 90 to 100% | 90 to 100% | 2.56 | 90 to 100% |
| O=C(Cn1cncc1Cl)c1ccc(Oc2ccc(Br)cc2)cc1Br [IX-37] | 90 to 100% | 90 to 100% | 90 to 100% | 3.22 | 80 to 89% |
| O=C(Cn1cncc1F)c1ccc(Oc2ccc(Cl)cc2)cc1C(F)(F)F [IX-83] | 80 to 89% | 90 to 100% | 90 to 100% | 2.88 | 80 to 89% |
| O=C(Cn1cncc1Cl)c1ccc(Oc2ccc(Br)cn2)cc1Cl [IX-79] | 90 to 100% | 90 to 100% | 90 to 100% | 2.59 | 80 to 89% |
| O=C(Cn1cncc1Br)c1ccc(Oc2ccc(Br)cc2)cc1Br [IX-36] | 90 to 100% | 90 to 100% | 90 to 100% | 3.16 | 80 to 89% |
| N#Cc1cncn1CC(=O)c1ccc(Oc2ccc(I)cc2)cc1Br [IX-66] | 90 to 100% | 90 to 100% | 90 to 100% | 3.8 | 90 to 100% |
| O=C(Cn1cncc1F)c1cnc(Oc2ccc(Cl)cc2)cc1Br [IX-93] | 90 to 100% | 90 to 100% | 90 to 100% | 2.39 | 80 to 89% |
| N#Cc1cncn1CC(=O)c1ccc(Oc2ccc(I)cc2)cc1Cl [IX-68] | 90 to 100% | 90 to 100% | 90 to 100% | 3.71 | 90 to 100% |
| N#Cc1cncn1CC(=O)c1ccc(Oc2ccc(Br)cc2)cc1C(F)(F)F [IX-59] | 90 to 100% | 90 to 100% | 90 to 100% | 3.65 | 90 to 100% |
| N#Cc1cncn1CC(=O)c1cnc(Oc2ccc(C(F)(F)F)cc2)cc1Cl [IX-114] | 80 to 89% | 90 to 100% | 90 to 100% | 3.29 | 90 to 100% |
| N#Cc1cncn1CC(=O)c1ccc(Oc2ccc(Br)cc2)cc1F [IX-62] | 90 to 100% | 90 to 100% | 90 to 100% | 3.33 | 90 to 100% |
| O=C(Cn1cncc1Cl)c1ccc(Oc2ccc(F)cc2)cc1Cl [IX-08] | 90 to 100% | 90 to 100% | 90 to 100% | 2.73 | 80 to 89% |
| O=C(Cn1cncc1Cl)c1cnc(Oc2ccc(Cl)cc2)cc1Br [IX-50] | 90 to 100% | 90 to 100% | 90 to 100% | 2.82 | 80 to 89% |
| O=C(Cn1cncc1F)c1ccc(Oc2ccc(Br)cc2)nc1C(F)(F)F [IX-86] | 90 to 100% | 90 to 100% | 90 to 100% | 2.76 | 90 to 100% |
| N#Cc1cncn1CC(=O)c1cnc(Oc2ccc(Cl)cc2)cc1Br [IX-92] | 90 to 100% | 80 to 89% | 90 to 100% | 3.08 | 80 to 89% |
| N#Cc1cncn1CC(=O)c1cnc(Oc2ccc(C(F)F)cc2)cc1C(F)(F)F [IX-98] |  | 90 to 100% | 90 to 100% | 3.13 | 80 to 89% |
| O=C(Cn1cncc1F)c1ccc(Oc2ccc(C(F)F)cc2)nc1C(F)(F)F [IX-134] | 90 to 100% | 90 to 100% | 90 to 100% | 2.48 | 80 to 89% |
| O=C(Cn1cncc1Cl)c1ccc(Oc2ccc(Cl)cn2)cc1Cl [IX-05] | 90 to 100% | 80 to 89% | 80 to 89% | 2.53 | 70 to 79% |
| O=C(Cn1cncc1F)c1cnc(Oc2ccc(OC(F)(F)F)cc2)cc1C(F)(F)F [IX-108] | 90 to 100% | 90 to 100% | 90 to 100% | 2.89 | 80 to 89% |
| N#Cc1cncn1CC(=O)c1cnc(Oc2ccc(Br)cc2)cc1C(F)F [IX-123] |  | 90 to 100% | 90 to 100% | 2.89 | 90 to 100% |
| O=C(Cn1cncc1F)c1ccc(Oc2ccc(C(F)F)cc2)nc1Cl [IX-84] | 90 to 100% | 90 to 100% | 90 to 100% | 2.12 | 80 to 89% |
| O=C(Cn1cncc1Cl)c1ccc(Oc2ccc(Cl)cc2)cc1C(F)F [IX-73] |  | 90 to 100% | 90 to 100% | 3.02 | 90 to 100% |
| O=C(Cn1cncc1Cl)c1ccc(Oc2ccc(C(F)(F)F)cc2)cc1C(F)(F)F [IX-53] |  | 90 to 100% | 90 to 100% | 3.51 | 90 to 100% |
